Patent EP4810483A1, “6- AND 5-HETEROARYL DERIVATIVES AND USE THEREOF” (CMS Research & Development Pte. Ltd., priority 2023, dated 2025)
Like-named read-outs stand apart in the source and are kept apart here.

Tests used:
[1] = tested on: maximal electroshock-induced epilepsy model; test: Maximal electroshock-induced epilepsy model, behavioral pharmacodynamics; assay type: in vivo; settings: dose 5 mg/kg, oral, one hour before electrical stimulation; male CD-1 mice
Text: Assay Example 2: Evaluation of the behavioral pharmacodynamics of the test compounds in a maximal electroshock-induced epilepsy model
This study used behavioral tests in male CD-1 mice to investigate the effects of test compounds on acute epileptic seizures behavior induced by maximal electroshock.
Male CD-1 mice (25 to 35g) were used as the experimental animals and fed with standard feed (Beijing Vital River Laboratory Animal Technology Co., Ltd.).
After arriving at the animal facility, the experimental animals needed to acclimatize for at least one week. The mice were observed daily for vital signs, and randomly divided into groups according to their body weights one day before the drug administration. One hour before the electrical stimulation, different dosages of the test compound were orally administered to each group. On the day of the assay, the male CD-1 mice in each group were anesthetized locally at the cornea with 2% lidocaine. Then, silver bipolar electrodes were used to electrically stimulate the cornea of the mice with 18 mA, 60 Hz, a pulse width of 0.6 ms, and a stimulation time of 1 s to induce seizures. Subsequently, the latency of seizures and the duration of limb rigidity in mice after the electrical stimulation were observed, and the protection rate from seizures for each group was statistically analyzed.

[2] = Pharmacokinetic evaluation in mice (IV and PO); assay type: in vivo; settings: mouse, plasma, CD-1 mice; for half-life: IV, read-out: Half-life T1/2 (IV) (converted); for AUC(0-t): PO, read-out: Area under the concentration-time curve AUC0-last PO; for bioavailability: read-out: Bioavailability F; for clearance: read-out: Clearance CL; for Cmax: read-out: Peak plasma concentration Cmax; for Vd: read-out: Volume of distribution Vdss
Description: Test Method 2: Pharmacokinetic Evaluation in Mice
Assay method: Test compounds were mixed with 5% DMSO / 60% polyethylene glycol (PEG400) / 35% water, vortexed and sonicated to obtain a clear 0.2 mg/mL solution, which was then filtered through a microporous membrane before use. Male CD-1 mice weighing 25-35 g were selected. The candidate compound solution was administered intravenously at a dose of 1 mg/kg. The candidate compound solution was orally administered at a dose of 5 mg/kg after fasting. Blood samples (25 µL each) were collected at 0.083, 0.25, 0.5, 1, 2, 4, 8, 12 and 24 hours after administration, and placed into commercial anticoagulant tubes pre-containing EDTA-K2. The tubes were centrifuged for 10 minutes to separate plasma, which was then stored at -60°C. The content of the target compound in plasma samples was determined by LC/MS/MS method, and pharmacokinetic parameters were calculated using Phoenix WinNonlin software (Pharsight, USA).
Tlast: time of the last detection point. AUC0-last: (Area Under the Concentration-Time Curve) refers to the area enclosed by the plasma drug concentration curve and the time axis. F (Bioavailability) is a measure of the rate and extent to which a drug is absorbed into the systemic circulation, serving as a critical indicator for evaluating the degree of drug absorption. […]

hKCNQ2/3 = biological target: T1, hKCNQ2/3 (Homo sapiens, UniProt O43525+O43526); test: cell-based
T1 construct: expressed in transfected cells; host or cells: CHO
Text: Test Method 1: hKCNQ2/3 Thallium Flux Assay
Test Objective: To test the in vitro concentration-response relationship of compounds using FLIPR thallium flux assay in CHO cell lines stably expressing hKCNQ2/3.
According to the split ratio, the cells were transferred to another T-75 flask containing complete cell growth medium. Note: To maintain logarithmic growth, the cells should be kept in a subconfluent monolayer state. Based on the cell doubling time, the cells were passaged every 2-3 days.
• (1) Day 1 - Cell preparation: Cells were digested as described above, and cell density and viability were determined using a Cell Countess. The volume of the single-cell suspension was adjusted with complete cell growth medium. Then, hKCNQ2/3_CHO cells were seeded onto PDL-precoated 384-well plates at a density of approximately 20,000 cells/well (30 µL/well). The plates were then incubated overnight in a 37°C, 5% CO2 humidified air incubator. • (2) Day 2 - Compound preparation: Test compounds were diluted with dimethyl sulfoxide (DMSO) to stock concentrations and stored in a -20°C freezer. A compound addition program was set up on the ECHO liquid handler, and compounds were added to the plates using the ECHO liquid handler. Retigabine (RTG) was used as a positive control at a highest concentration of 100 µM with 3-fold serial dilutions for a total of 9 doses. Buffer containing 5 mM K^+ and 1 mM Tl^+ was added to the plates. Notes: 1) K2SO4 and Tl2SO4 were prepared in 1× chloride-free buffer. Depending on the voltage-gated potassium channel involved, the concentrations of Tl^+ and K^+ should be adjusted. Tl^+ concentration is approximately 0.5-5 mM, and K^+ concentration is approximately 5-30 mM. 2) Each 1 mM solution of K2SO4 and Tl2SO4 contains 2 mM K^+ and Tl^+; the final concentration should be calculated based on the ion concentration. 3) TlCl readily precipitates and a chloride-free buffer is required. • (3) Day 2 -Assay testing: Once the cells reached the desired confluence, the cell assay plates were removed from the incubator. Assay buffer and diluted Tl^+ dye (Molecular Devices # R8222) were prepared. The medium was discarded using a Bravo liquid handler, and 25 µL of Tl^+ dye was added to each well. After 1 hour of incubation, the cell assay plates, composite plates and FLIPR tips were placed in the FLIPR^TETRA (Molecular Devices, USA) for FLIPR detection. After setting up the tips, baseline readings were taken for 60 seconds, then 12.5 µL was added from the composite plate (3×) to the cell assay plate, and data were recorded for at least 5 minutes. • (4) Data processing: Maximum signals were generated by the FLIPR software. […] Data quality control: S/B > 2.00, Z factor > 0.50.
• (1) Day 1 - Cell preparation: Cells were digested as described above, and cell density and viability were determined using a Cell Countess. The volume of the single-cell suspension was adjusted with complete cell growth medium. Then, hKCNQ2/3_CHO cells were seeded onto PDL-precoated 384-well plates at a density of approximately 20,000 cells/well (30 µL/well). The plates were then incubated overnight in a 37°C, 5% CO2 humidified air incubator. • (2) Day 2 - Compound preparation: Test compounds were diluted with dimethyl sulfoxide (DMSO) to stock concentrations and stored in a -20°C freezer. A compound addition program was set up on the ECHO liquid handler, and compounds were added to the plates using the ECHO liquid handler. Retigabine (RTG) was used as a positive control at a highest concentration of 100 µM with 3-fold serial dilutions for a total of 9 doses. Buffer containing 5 mM K^+ and 1 mM Tl^+ was added to the plates. Notes: 1) K2SO4 and Tl2SO4 were prepared in 1× chloride-free buffer. Depending on the voltage-gated potassium channel involved, the concentrations of Tl^+ and K^+ should be adjusted. Tl^+ concentration is approximately 0.5 mM -5 mM, and K^+ concentration is approximately 5 mM -30 mM.

T1 sequence (O43526 whole entry): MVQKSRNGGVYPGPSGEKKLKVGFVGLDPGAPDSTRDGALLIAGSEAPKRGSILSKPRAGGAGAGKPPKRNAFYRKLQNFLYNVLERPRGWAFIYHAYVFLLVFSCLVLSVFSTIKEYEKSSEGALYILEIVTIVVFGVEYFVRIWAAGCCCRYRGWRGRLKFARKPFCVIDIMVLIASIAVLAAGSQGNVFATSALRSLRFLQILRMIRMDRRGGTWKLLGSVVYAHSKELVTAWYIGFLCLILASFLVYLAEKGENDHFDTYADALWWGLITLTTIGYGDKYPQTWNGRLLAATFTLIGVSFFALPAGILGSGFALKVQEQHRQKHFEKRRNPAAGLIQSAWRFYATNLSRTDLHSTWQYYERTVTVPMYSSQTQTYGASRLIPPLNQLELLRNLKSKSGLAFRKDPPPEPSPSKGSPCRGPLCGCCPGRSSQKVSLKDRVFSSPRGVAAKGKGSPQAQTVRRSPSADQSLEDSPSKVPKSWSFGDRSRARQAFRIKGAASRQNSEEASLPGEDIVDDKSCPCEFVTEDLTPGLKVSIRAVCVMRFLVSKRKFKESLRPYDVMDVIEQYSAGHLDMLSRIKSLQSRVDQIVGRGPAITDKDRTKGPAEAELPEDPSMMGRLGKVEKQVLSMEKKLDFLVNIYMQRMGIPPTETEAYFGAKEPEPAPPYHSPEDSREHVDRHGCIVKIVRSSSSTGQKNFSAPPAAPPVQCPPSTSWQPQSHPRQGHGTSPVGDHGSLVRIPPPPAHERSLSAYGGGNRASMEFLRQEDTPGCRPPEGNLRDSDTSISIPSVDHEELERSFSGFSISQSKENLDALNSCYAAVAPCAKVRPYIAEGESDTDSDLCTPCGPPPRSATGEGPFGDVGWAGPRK
T1 sequence (O43525 whole entry): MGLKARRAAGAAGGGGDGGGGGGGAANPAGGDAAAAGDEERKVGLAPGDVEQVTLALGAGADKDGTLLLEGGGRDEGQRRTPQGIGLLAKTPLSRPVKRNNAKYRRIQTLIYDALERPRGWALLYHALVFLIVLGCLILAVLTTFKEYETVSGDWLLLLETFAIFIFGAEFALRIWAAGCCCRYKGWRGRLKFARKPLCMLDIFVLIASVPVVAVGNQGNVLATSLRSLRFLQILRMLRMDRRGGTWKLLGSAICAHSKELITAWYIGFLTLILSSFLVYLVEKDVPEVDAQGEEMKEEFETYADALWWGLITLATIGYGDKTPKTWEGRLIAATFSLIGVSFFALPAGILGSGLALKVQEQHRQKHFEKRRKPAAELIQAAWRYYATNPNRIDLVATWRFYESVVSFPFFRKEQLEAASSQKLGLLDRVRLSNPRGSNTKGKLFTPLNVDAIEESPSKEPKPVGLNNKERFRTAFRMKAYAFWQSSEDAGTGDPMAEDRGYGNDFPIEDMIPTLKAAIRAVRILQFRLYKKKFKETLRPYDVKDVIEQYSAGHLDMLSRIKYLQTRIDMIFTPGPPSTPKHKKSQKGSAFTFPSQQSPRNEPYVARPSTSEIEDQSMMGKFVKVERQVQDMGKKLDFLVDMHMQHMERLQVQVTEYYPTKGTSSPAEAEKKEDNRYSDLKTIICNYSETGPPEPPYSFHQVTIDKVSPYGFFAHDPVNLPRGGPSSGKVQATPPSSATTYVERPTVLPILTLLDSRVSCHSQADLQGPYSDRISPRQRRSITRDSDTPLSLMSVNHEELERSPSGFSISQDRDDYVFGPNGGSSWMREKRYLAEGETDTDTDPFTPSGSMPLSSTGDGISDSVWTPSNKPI

Row | SMILES | Seizure incidence (%) [1] [%] | half-life ([2]; dose IV:0.5, PO:2 mg/kg) [h] | half-life ([2]; dose IV:1, PO:5 mg/kg) [h] | AUC(0-t) ([2]; dose IV:0.5, PO:2 mg/kg) [µM·h] | AUC(0-t) ([2]; dose IV:1, PO:5 mg/kg) [µM·h] | bioavailability ([2]; dose IV:0.5, PO:2 mg/kg) [%] | clearance ([2]; dose IV:0.5, PO:2 mg/kg) [mL/min/kg] | Cmax ([2]; dose IV:0.5, PO:2 mg/kg) [nM] | Vd ([2]; dose IV:0.5, PO:2 mg/kg) [L/kg] | bioavailability ([2]; dose IV:1, PO:5 mg/kg) [%] | clearance ([2]; dose IV:1, PO:5 mg/kg) [mL/min/kg] | Cmax ([2]; dose IV:1, PO:5 mg/kg) [nM] | Vd ([2]; dose IV:1, PO:5 mg/kg) [L/kg] | EC50 (hKCNQ2/3) [nM]
1 | Cc1c(NC(=O)CC(C)(C)C)n(C)c2cc(Nc3ccc(F)cc3)ccc12 [Compound 1] | 16.7 | 1.83 | 1.63 | 2.04 | 4.57 | 79.6 | 34.8 | 322 | 5.16 | 83.9 | 41.8 | 596 | 5.06 | 960
2 | Cc1c(NC(=O)CC(C)(C)C)n(C)c2cc(Nc3ccc(C(F)(F)F)cc3)ccc12 [Compound 5] | 16.7 | 5.9 | – | – | – | 64 | 9.1 | – | 3.97 | – | – | – | – | 520
3 | Cc1nc(Nc2ccc3c(C)c(NC(=O)CC(C)(C)C)n(C)c3c2)ccc1F [Compound 41] | 0 | – | 0.7 | – | 21.4 | – | – | – | – | 78.2 | 8.9 | 4580 | 0.6 | 290
